PMC4599313 (Journal of the American Chemical Society, 2015)

Key:
Type in all cases: biochemical
[1] = biological target: T1, PglH (Campylobacter jejuni, UniProt Q0P9C5); experiment: normal-phase HPLC of [3H]-labelled glycan; conditions: [3H]-labelled Und-PP-diNAcBac-GalNAc-GalNAz acceptor
T1 sequence (Q0P9C5 1-359): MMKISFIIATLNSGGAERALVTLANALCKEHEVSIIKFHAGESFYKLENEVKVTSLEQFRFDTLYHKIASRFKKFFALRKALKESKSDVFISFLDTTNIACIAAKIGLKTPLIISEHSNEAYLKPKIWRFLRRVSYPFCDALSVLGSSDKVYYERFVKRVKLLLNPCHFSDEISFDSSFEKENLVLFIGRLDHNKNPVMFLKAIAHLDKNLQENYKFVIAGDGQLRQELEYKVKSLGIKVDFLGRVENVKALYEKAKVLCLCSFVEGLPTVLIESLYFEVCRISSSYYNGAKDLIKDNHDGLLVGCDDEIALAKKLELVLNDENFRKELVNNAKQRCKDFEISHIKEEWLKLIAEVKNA

[2] = biological target: T2, PglC (Campylobacter jejuni, UniProt Q0P9D0); experiment: capillary electrophoresis of APTS-labelled monosaccharide; conditions: Und-P acceptor; 60 min; PglC 10 nM
T2 sequence (Q0P9D0 1-200): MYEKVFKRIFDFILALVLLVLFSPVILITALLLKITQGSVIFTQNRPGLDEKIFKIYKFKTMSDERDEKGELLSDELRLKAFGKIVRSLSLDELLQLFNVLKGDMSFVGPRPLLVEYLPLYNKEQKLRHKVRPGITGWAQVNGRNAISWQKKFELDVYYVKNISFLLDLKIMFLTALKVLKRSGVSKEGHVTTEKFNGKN

[3] = biological target: T3, PglJ (Campylobacter jejuni, UniProt Q0P9C7); experiment: HPLC and scintillation counting of [3H]-labelled product; conditions: Und-PP-diNAcBac-[3H]-GalNAc acceptor; 100 uM UDP-sugar; PglJ 90 nM
T3 sequence (Q0P9C7 1-365): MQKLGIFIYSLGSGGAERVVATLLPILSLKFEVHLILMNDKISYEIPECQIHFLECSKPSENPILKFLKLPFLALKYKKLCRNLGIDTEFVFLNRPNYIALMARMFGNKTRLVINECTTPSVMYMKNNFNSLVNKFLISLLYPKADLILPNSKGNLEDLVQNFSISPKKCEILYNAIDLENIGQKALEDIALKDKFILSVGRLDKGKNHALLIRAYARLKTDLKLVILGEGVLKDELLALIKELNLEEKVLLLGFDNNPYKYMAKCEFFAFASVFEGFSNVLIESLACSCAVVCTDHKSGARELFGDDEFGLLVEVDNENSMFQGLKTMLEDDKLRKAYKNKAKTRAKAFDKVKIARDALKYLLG

CC(=O)N[C@H]1[C@@H](OP(=O)(O)OP(=O)(O)OC[C@H]2O[C@@H](n3ccc(=O)[nH]c3=O)[C@H](O)[C@@H]2O)O[C@H](CO)[C@H](O)[C@@H]1O [UDP-GalNAc]
normal-phase HPLC of [3H]-labelled glycan [1]: the tolerance of PglH was tested by incubating enzyme with UDP-GalNAc and UDP-GalNAz

CC(=O)N[C@H]1[C@@H](OP(=O)(O)OP(=O)(O)OC[C@H]2O[C@@H](n3ccc(=O)[nH]c3=O)[C@H](O)[C@@H]2O)O[C@H](C)[C@@H](NC(C)=O)[C@@H]1O [UDP-diNAcBac]
capillary electrophoresis of APTS-labelled monosaccharide [2]: the conversion was low for both, UDP-diNAcBac and UDP-2-NAc-4-NAzBac

[N-]=[N+]=NCC(=O)N[C@H]1[C@@H](OP(=O)(O)OP(=O)(O)OC[C@H]2O[C@@H](n3ccc(=O)[nH]c3=O)[C@H](O)[C@@H]2O)O[C@H](CO)[C@H](O)[C@@H]1O [UDP-GalNAz]
HPLC and scintillation counting of [3H]-labelled product [3]: PglJ efficiently incorporates an azido sugar into the Und-PP-trisaccharide
